pEC50: −log10 of the molar value.

The target in the experiment is T1, human GPR40 (Homo sapiens, UniProt O14842).
T1 construct: expressed in transfected cells; host or cells: HEK cells stably expressing the aequorin reporter
T1 sequence (O14842 whole entry): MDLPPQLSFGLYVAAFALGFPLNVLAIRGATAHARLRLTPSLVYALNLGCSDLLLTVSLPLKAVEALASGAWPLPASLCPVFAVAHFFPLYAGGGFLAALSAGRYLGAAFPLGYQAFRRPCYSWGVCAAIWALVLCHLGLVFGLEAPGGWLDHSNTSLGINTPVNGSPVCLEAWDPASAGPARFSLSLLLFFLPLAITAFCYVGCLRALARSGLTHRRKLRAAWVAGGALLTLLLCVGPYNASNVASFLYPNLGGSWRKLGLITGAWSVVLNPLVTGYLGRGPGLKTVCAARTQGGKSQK
In words: Inositol Phosphate Turnover (IP1) Assay 3. In kind it is cell-based. Conditions: HEK cells stably expressing human GPR40. The method, then: Human and mouse GPR40 stable cell-lines were generated in CHO cells stably expressing NFAT BLA (Beta-lactamase). A human GPR40 stable cell-line was generated in HEK cells stably expressing the aequorin expressing reporter. The expression plasmids were transfected using lipofectamine (Life Technologies) following manufacturer's instructions. Stable cell-lines were generated following drug selection.
Inositol Phosphate Turnover (IP1) Assay 3:
The assay was performed in 384-well format. HEK cells stably expressing human GPR40 were plated at 7500 cells per well in growth medium (DMEM/10% fetal calf serum). Cell plates were then incubated 16 hours at 37 degrees in a 5% CO2 incubator.
Measurement of Inositol Phosphate Turnover (IP) was performed using the CisBio IP-One kit (Part number 62IPAPEB). After the 16 hour incubation, the growth media was removed by centrifugation using the BlueWasher (AusWasher GUI Ver. v1.0.1.8) Protocol #21—“Light Dry” and 10 ul of stimulation buffer (prepared as described in the kit) was added to each well. In a separate plate, compounds were diluted in DMSO (200-fold over the final concentration in the assay well) and 50 nl was acoustically transferred to the appropriate well in the assay cell plate. The plates were then incubated for 60 minutes at 37 degrees in a 5% CO2 incubator. 10 ul of detection buffer (also prepared as described in the IP-One kit) was added to each well and the plates were incubated at rt for 60 minutes in the dark. The plates were then read in a Perkin Elmer EnVision or equivalent reader able to measure FRET. Fluorescent ratio of emission at 665 and 620 nm was then converted to IP1 concentration by back calculating from an IP1 standard curve prepared at the time of the assay. Data is normalized to % activity using a reference compound and EC50s determined using a standard 4-parameter fit.
For the compound `CCN(CC)C(C)c1cc(C2CCc3ccc([C@H](C4CC4)[C@H](C)C(=O)O)cc3O2)ccc1-c1cc(OC)ncc1F` (single isomer, unassigned) [Example 245], the negative logarithm of the EC50 (pEC50) is 8.27.
`CCOc1cc(-c2ccc(C3CCc4ccc([C@H](C5CC5)[C@H](C)C(=O)O)cc4O3)c(CN(C)C(C)(C)C)c2)c(F)cn1` (single isomer, unassigned) [Example 132b] had a pEC50 of 6.97.
As for `COc1cc(-c2ccc(C3CCc4ccc([C@H](C5CC5)[C@H](C)C(=O)O)cc4O3)c(CN3[C@H](C)CC[C@H]3C)c2)ccn1` (single isomer, unassigned) [Example 116d], the figure is 6.41.
As for `COc1cc(-c2ccc(C3CCc4ccc([C@H](C5CC5)[C@H](C)C(=O)O)cc4O3)cc2CN2[C@H](C)CCC[C@@H]2C)c(F)cn1` (some centres unmarked) [Example 259], the figure is 9.70; as for `COc1cc(-c2ccc(C3CCc4ccc([C@H](C5CC5)[C@H](C)C(=O)O)cc4O3)cc2CN2CCCCC2(C)C)ccn1` (some centres unmarked) [Example 242], 8.51.
`CCN(CC)Cc1cc(C2CCc3ccc([C@H](C4CCC4)[C@H](C)C(=O)O)cc3O2)ccc1-c1cc(OC)ncc1F` (single isomer, unassigned) [Example 98]: the negative logarithm of the EC50 (pEC50) was 10.05.
Compound `COc1cc(-c2ccc(C3CCc4ccc([C@H](C5CC5)[C@H](C)C(=O)O)cc4O3)c(CN3CCCCC3(C)C)c2)ccn1` (single isomer, unassigned) [Example 117a] gave a pEC50 of 9.40.
As for `COc1cc(-c2ccc(C3CCc4ccc([C@H](C5CC5)[C@H](C)C(=O)O)cc4O3)c(CN3CCCC3(C)C)c2)ccn1` (single isomer, unassigned) [Example 111a], the figure is 8.49; as for `CCN(Cc1cc(-c2cc(OC)ncc2F)ccc1C1CCc2ccc([C@H](C3CC3)[C@H](C)C(=O)O)cc2O1)C(C)C` (mixture of isomers) [Example 124], 9.52; as for `CCN(Cc1cc(-c2ccnc(OC)c2)ccc1C1CCc2ccc([C@H](C3CC3)[C@H](C)C(=O)O)cc2O1)C(C)C` (single isomer, unassigned) [Example 113b], 7.85.
As for `COc1cc(-c2ccc(C3CCc4ccc([C@H](C5CC5)[C@H](C)C(=O)O)cc4O3)cc2CN2C[C@H]3CC[C@@H]2C3)c(F)cn1` (some centres unmarked) [Example 269], the figure is 8.21; as for `CCN(CC)Cc1cc(C2CCc3ccc([C@H](C4CC4)[C@H](C)C(=O)O)cc3O2)ccc1-c1cc(OC)ncc1C#N` (some centres unmarked) [Example 291], 8.51; as for `CCOc1cc(-c2ccc(C3CCc4ccc([C@H](C5CC5)[C@H](C)C(=O)O)cc4O3)cc2CN(CC)CC)c(Cl)cn1` (single isomer, unassigned) [Example 215], 8.22.
As for `COc1cc(-c2ccc(C3CCc4ccc([C@H](C5CC5)[C@H](C)C(=O)O)cc4O3)cc2CN2CCCC2(C)C)ccn1` (some centres unmarked) [Example 281], the figure is 8.24; as for `CCOc1cc(-c2ccc(C3CCc4ccc([C@H](C5CC5)[C@H](C)C(=O)O)cc4O3)c(CN3CCC[C@@H]3C)c2)c(F)cn1` (single isomer, unassigned) [Example 133], 9.10.
For the compound `COc1cc(-c2ccc(C3CCc4ccc([C@H](C5CC5)[C@H](C)C(=O)O)cc4O3)c(CN(C(C)C)C(C)C)c2)c(F)cn1` (mixture of isomers) [Example 126], the negative-log EC50 (pEC50) is 10.00.
As for `COc1cc(-c2ccc(C3CCc4ccc([C@H](C5CCC5)[C@H](C)C(=O)O)cc4O3)cc2CN2[C@H](C)CC[C@H]2C)c(F)cn1` (single isomer, unassigned) [Example 97], the figure is 9.72; as for `COc1cc(-c2ccc(C3CCc4ccc([C@H](C5CC5)[C@H](C)C(=O)O)c(F)c4O3)cc2CN2CCCC2(C)C)c(F)cn1` (single isomer, unassigned) [Example 206], 8.89.
As for `C[C@H](C(=O)O)[C@H](c1ccc2c(c1)OC(c1ccc(-c3cc(O)ncc3F)c(CN(C)C3CCOC3)c1)CC2)C1CC1` (some centres unmarked) [Example 268a], the figure is 9.22; as for `COc1cc(-c2ccc(C3CCc4ccc([C@H](C5CC5)[C@H](C)C(=O)O)cc4O3)c(CN3[C@H](C)CC[C@@H]3C)c2)ccn1` (single isomer, unassigned) [Example 122b], 6.72.
As for `COc1cc(-c2ccc(C3CCc4ccc([C@H](C5CC5)[C@H](C)C(=O)O)cc4O3)c(CN3CCCC3)c2)c(F)cn1` (single isomer, unassigned) [Example 123b], the figure is 8.85; as for `COc1cc(-c2ccc(C3CCc4ccc([C@H](C5CC5)[C@H](C)C(=O)O)cc4O3)c(F)c2CN2CCCC2)c(F)cn1` (single isomer, unassigned) [Example 219], 8.70; as for `COc1cc(-c2ccc(C3CCc4ccc([C@H](C5CC5)[C@H](C)C(=O)O)cc4O3)c(CN(C)C(C)(C)C)c2)ccn1` (single isomer, unassigned) [Example 114b], 6.60.
In turn, `COc1cc(-c2ccc(C3CCc4ccc([C@H](C5CC5)[C@H](C)C(=O)O)cc4O3)c(CN3[C@H](C)CC[C@H]3C)c2)ccn1` (single isomer, unassigned) [Example 116a] showed a negative-log EC50 (pEC50) of 8.77.
In turn, `COc1cc(-c2ccc(C3CCc4ccc([C@H](C5CC5)[C@H](C)C(=O)O)cc4O3)c(CN3CCCCC34CC4)c2)ccn1` (single isomer, unassigned) [Example 224] had a pEC50 of 7.96.
`COc1cc(-c2ccc(C3CCc4ccc([C@H](C5CCC5)[C@H](C)C(=O)O)cc4O3)cc2CN2CCCCC2)c(F)cn1` (single isomer, unassigned) [Example 105] gave a pEC50 of 10.00.
As for `COc1cc(-c2ccc(C3CCc4ccc([C@H](C5CC5)[C@H](C)C(=O)O)cc4O3)c(CN3CCC[C@@H]3C)c2)c(F)cn1` (single isomer, unassigned) [Example 129a], the figure is 9.60; as for `CCC1CCCN1Cc1cc(C2CCc3ccc([C@H](C4CC4)[C@H](C)C(=O)O)cc3O2)ccc1-c1cc(OC)ncc1F` (single isomer, unassigned) [Example 267b], 10.00.
As for `COc1cc(-c2ccc([C@H]3CCc4ccc([C@H](C5CC5)[C@H](C)C(=O)O)cc4O3)cc2CN2CCCCC23CC3)ccn1` [Example 176], the figure is 9.70; as for `COc1cc(-c2ccc(C3CCc4ccc([C@H](C5CC5)[C@H](C)C(=O)O)cc4O3)c(CN3CCCCC3(C)C)c2)c(F)cn1` (single isomer, unassigned) [Example 128a], 10.15; as for `COc1cc(-c2ccc(C3CCc4ccc([C@H](C5CC5)[C@H](C)C(=O)O)cc4O3)cc2C(CN2CCCC2)OC)ccn1` (single isomer, unassigned) [Example 177, (2S, 3R)-3-cyclopropyl-3-((R or S)-2-(3-((R or S)-1-methoxy-2-(pyrrolidin-1-yl)ethyl)-4-(2-methoxypyridin-4-yl)phenylchroman-7-yl)-2-methylpropanoic acid], 6.64.
As for `COc1cc(-c2ccc(C3CCc4ccc([C@H](C5CC5)[C@H](C)C(=O)O)cc4O3)c(CN(C(C)C)C(C)C)c2)c(F)cn1` (single isomer, unassigned) [Example 126a], the figure is 10.30; as for `COc1cc(-c2ccc(C3CCc4ccc([C@H](C5CC5)[C@H](C)C(=O)O)cc4O3)cc2CN2CCC3CC32)c(F)cn1` (some centres unmarked) [Example 252], 9.15.
In turn, `COc1cc(-c2ccc(C3CCc4ccc([C@H](C5CCC5)[C@H](C)C(=O)O)cc4O3)cc2CN2CCCCC23CC3)c(F)cn1` (single isomer, unassigned) [Example 106] had a pEC50 of 9.70.
As for `COc1cc(-c2ccc(C3CCc4ccc([C@H](C5CCC5)[C@H](C)C(=O)O)cc4O3)cc2CN2CCCC2C)c(F)cn1` (single isomer, unassigned) [Example 101], the figure is 9.60; as for `COc1cc(-c2ccc(C3CCc4ccc([C@H](C5CC5)[C@H](C)C(=O)O)cc4O3)c(CN3CCC[C@H]3C)c2)ccn1` (single isomer, unassigned) [Example 119b], 8.38.
As for `COc1cc(-c2ccc(C3CCc4ccc([C@H](C5CC5)[C@H](C)C(=O)O)cc4O3)c(CN3CCCC3(C)C)c2)ccn1` (single isomer, unassigned) [Example 111b], the figure is 9.40; as for `COc1cc(-c2ccc(C3CCc4ccc([C@H](C5CC5)[C@H](C)C(=O)O)cc4O3)cc2CNC(C)C)ccn1` (some centres unmarked) [Example 243], 6.09.
In turn, `CCN(CC)Cc1cc(C2CCc3ccc([C@H](C4CC4)[C@H](C)C(=O)O)cc3O2)ncc1-c1cc(OC)ncc1F` (single isomer, unassigned) [Example 87] had a pEC50 of 8.18.
Turning to `COc1cc(-c2ccc(C3CCc4ccc([C@H](C5CC5)[C@H](C)C(=O)O)c(F)c4O3)cc2CN2CCCCC2)c(F)cn1` (single isomer, unassigned) [Example 200], the pEC50 is 8.82.
As for `CCN(C)C(C)c1cc(C2CCc3ccc([C@H](C4CC4)[C@@H](C)C(=O)O)cc3O2)ccc1-c1cc(OC)ncc1F` (some centres unmarked) [Example 246], the figure is 8.66.

For orientation: pEC50 means the negative decadic logarithm of the EC50, by convention in mol/L.

These data come from US10968193B2, “Antidiabetic bicyclic compounds” (Merck Sharp & Dohme Corp., priority 2014, dated 2021).
